Source: patent publication US9796755B2, “Methods of treating depression and other related diseases” (Northwestern University, priority 2009, dated 2017)

Legend:
[1] = test system: patients suffering with refractory depression; settings: cited from earlier work
[2] = literature (Bristow et al. 1996; Parsons et al. 1997); cited from earlier work
rats [3] = assay: Porsolt test (Forced Swim Test), systemic dosing; assay type: in vivo, rat
Procedure: For the evaluation of the antidepressant actions of GLYX-13, the effect of GLYX-13 in the Porsolt test of depression was examined in rats. Porsolt testing is the most commonly used test for assessment of depression in animal model, Porsolt testing, also known as Forced Swim Test, is based on a behavioral trait that is sensitive to changes in affective state. During this test, the animal is placed in a tank (18 cm diameter×45 cm height) filled to 30 cm with 22-23° C. water. After placing the animal in the tank, the amount of time for which the rat is immobile when it stops struggling is measured. Porsolt test is based on the fact that antidepressants increase the latency to immobility and decrease the time for which the rat is immobile. […] The interpretation of the Porsolt test is that the antidepressants reinstate active coping mechanisms and decrease the passive immobility evoked by stress.
In order to evaluate the effectiveness of GLYX-13 as antidepressant, three month old FBNF1 rats were separated into two groups of 9 animals. The first group of rats was intravenously injected with 10 mg/kg GLYX-13 and the second group of animals was intravenously injected with PBS vehicle (1 ml/kg) in a blind manner via chronic subdural femoral vein access ports. Both groups of animals were injected 10 to 15 minutes before the start of testing.
For Porsolt testing, animals were given a 15 minute pre-test habituation in the tank to induce learned helplessness on day one. Following this, on the subsequent day, the animals were injected with GLYX-13 or vehicle 10-15 minutes before being placed into the tank for a 5 minute test session. After placing the animals in the tank, the amount of time for which each animal is immobile when it stops struggling (Mean Immobility Time) was measured. Decrease in Mean Immobility Time is a measure of the effectiveness of the antidepressant.
A second experiment was performed in the same manner as Example 1, except that 2-3 month Sprague-Dawley rats were used, and treated with either intravenous (1, 3, 10, 32 mg/kg), subcutaneous (1, 3, 10, 32, 56, 100 mg/kg) injections of GLYX-13 or saline vehicle (1 mg/ml) 15 (i,v.) or 20 (s.c.) min before the start of the final 5 min test session. Ketamine (10 mg/kg i.p.) was given 60 min befbre the start of testing (Garcia et al., (2008) Prog Neuropsychopharmacol Biol Psychiatry, 32, 140-144).
To determine whether the antidepressant effect of GLYX-13 was specific to the sequence of the GLXY-13 peptide, mean time (sec) spent floating in the Porsolt test was determined in groups of 12 three-month old Sprague Dawley rats administered with GLYX-13 (TPPT-NH2 (SEQ ID NO: 13); 3 mg/kg , i.v. tail vein), a scrambled peptide (PTPT-NH3(SEQ ID NO: 19); 3 mg/kg i.v. tail vein), or 0.9% saline vehicle (1 ml/kg, i.v. tail vein). Administration occurred 60 min before the 5 min testing session. Animals received a 15 min training swim session one day before dosing.
To evaluate whether the anti-depressive and anxiolytic effects of GLYX-13 would persist beyond a few hours, rats were tested in the Porsolt test and the Open Field test, described above. Groups of 10-11 three-month old Sprague-Dawley rats were pretreated with GLYX-13 (3 mg/kg i.v.), ketamine (10 mg/kg i.v.) or saline vehicle injection (1 mg/ml i.v. tail vein) 96 hrs before the start of testing. Animals received a single 15 min. training swim session one day before dosing. Animals were tested 96 hrs post dosing in the Porsolt test without any testing during the intervening period. Open field testing was conducted without pre-habituation 1 day after Porsolt testing (i.e. 120 hrs post dosing). Mean(±SEM) time (sec.) spent floating in the Porsolt test, time spent in the center compartment (sec.), and line crosses in the open field test were determined.
The Porsolt test adapted for use in rats was performed as above. […]

rats [4] = assay: Drug discrimination in rats trained to discriminate ketamine from saline
Procedure: Testing was conducted as described previously (Nicholson K L & Balster R L (2009) The discriminative stimulus effects of N-methyl-D-aspartate glycine-site ligands in NMDA antagonist-trained rats. Psychopharmacology (Berl) 203(2):441-451). Adult male Sprague Dawley rats were trained to discriminate ketamine (10 mg/kg IP) from saline. Animals were then tested following various doses of GLYX-13 administration (3-156 mg/kg SC) and the percent of ketamine lever responding and rates of responding were recorded.

GluR1 = assay: Total and phosphoserine-845 GluR1 by Western blot in medial prefrontal cortex; assay type: in vivo, rat; settings: 24 hrs after GLYX-13 3 mg/kg IV or ketamine 10 mg/kg IV
From the text: (§1) Total and Phosphoserine-9 glycogen synthase kinase 3β (GSK-3β) were quantified by ELISA according to the manufacturer's instructions (catalog numbers ADI-900-144 and ADI-900-123A, Assay Designs, USA). Total and phosphoserine-845 GluR1 were quantified by Western blot.

rats [5] = assay: Conditioned place preference; assay type: in vivo, rat; settings: GLYX-13 10 mg/kg IV; ketamine 10 mg/kg IV
Procedure: Animals were trained with GLYX-13 (10 mg/kg, IV), ketamine (10 mg/kg, IV), or saline vehicle (1 mL/kg, IV) utilizing an unbiased two-chamber conditioned place preference apparatus.

rats [6] = assay: Prepulse inhibition; assay type: in vivo, rat; settings: Sprague-Dawley rats; GLYX-13 10 mg/kg IV tested 15 min post injection; ketamine 10 mg/kg IP tested immediately
Procedure: Animals were given intravenous injections of GLYX-13 (10 mg/kg) or saline via chronic indwelling femoral vein cannulae and tested 15 min post injection, or intraperitoneal ketamine (10 mg/kg) or saline vehicle (1 mL/kg IV or IP respectively) and tested immediately post injection for prepulse inhibition.

[7] = test system: glycogen synthase kinase 3β (GSK-3β); assay: Total and phosphoserine-9 GSK-3β by ELISA in medial prefrontal cortex; assay type: in vivo, rat; settings: 24 hrs after GLYX-13 3 mg/kg IV or ketamine 10 mg/kg IV
From the text: as §1

β-catenin = assay: Total β-catenin protein level in medial prefrontal cortex; assay type: in vivo, rat; settings: 24 hrs after GLYX-13 3 mg/kg IV or ketamine 10 mg/kg IV

SMILES: C[C@@H]([C@@H](O)c1ccc(O)cc1)N1CCC(O)(c2ccccc2)CC1 [CPC-101,606]
- Hamilton Depression Rating Score [1]: significant reductions

SMILES: O=c1[nH]c2cc(Cl)ccc2c(O)c1-c1cccc(Oc2ccccc2)c1 [L-701,324]
- anticonvulsant effects relative to ataxia (therapeutic index) [2]: anticonvulsant effects at doses that produced ataxia

SMILES: NS(=O)(=O)c1cccc2c1c([N+](=O)[O-])cc1nc(O)c(O)nc12 [NBQX, reference compound]
- effect of NBQX pretreatment on the antidepressant-like effect of GLYX-13 (floating time) (rats [3]; NBQX 10 mg/kg IP before GLYX-13 3 mg/kg IV, tested 1 hr post dosing): blocked the antidepressant-like effect of GLYX-13

SMILES: CNC1(c2ccccc2Cl)CCCCC1=O (stereo not drawn) [ketamine, reference compound]
- suppression of operant responding (rates of responding) (rats [4]; IP, 30 mg/kg (higher dose)): suppress operant responding
- ketamine-like discriminative stimulus effects (ketamine-lever selection) (rats [4]; IP, 5.6-30 mg/kg): dose-dependent increases in ketamine-lever selection
- suppression of operant responding (rates of responding) (rats [4]; SC, 10 mg/kg (higher dose)): suppress operant responding
- ketamine-like discriminative stimulus effects (ketamine-lever selection) (rats [4]; SC, 1-10 mg/kg): dose-dependent increases in ketamine-lever selection
- Phosphoserine-845 GluR1/total GluR1 ratio (GluR1): increased
- conditioned place preference, an indicator of abuse potential (rats [5]): induced conditioned place preference
- Hamilton Depression Rating Score [1]: significant reductions
- dissociative side effects (rats [3]; 10 mg/kg subcutaneous, testing 20 min post dosing): severe dissociative side effects
- effect on floating times in the Porsolt test (rats [3]; Sprague Dawley rats, 10 mg/kg IP, 20-60 min post dosing): reduced floating times
- prepulse inhibition, an indicator of dissociative effects (rats [6]): decreased prepulse inhibition
- phosphoserine-9 GSK-3β/total GSK-3β ratio [7]: reduced
- total β-catenin (β-catenin): reduced
